Laboratory results from patent US20200268768A1, “CENICRIVIROC COMBINATION THERAPY FOR THE TREATMENT OF FIBROSIS” (Tobira Therapeutics, Inc., priority 2015, published 2020).
Where a name gives a salt, the structure may show the parent alone.

Assays:
[1] = Solubility of cenicriviroc mesylate; assay type: physicochemical
[2] = test system: adults with CCR5 tropic HIV-1; experiment: Study 202 post-hoc APRI and FIB-4 fibrosis index scores; assay type: in vivo, human
Procedure: APRI and FIB-4 scores were calculated. Change in score category from baseline (BL) to Weeks 24 and 48 was assessed in patients with non-missing data. Correlations between changes from BL in APRI and FIB-4 scores, and MCP-1 (CCR2 ligand) and sCD14 (inflammatory biomarker) levels were evaluated.

[3] = test system: HIV-1 infected adult subjects; experiment: Study 202 biomarkers of inflammation; assay type: in vivo, human; details: EFV 600 mg
Procedure: As an exploratory analysis, levels of inflammation biomarkers MCP-1, sCD14, high sensitivity C-reactive protein [hs-CRP], interleukin-6 [IL-6], D-dimer, and fibrinogen) were measured. Baseline values and changes from baseline at Week 24 and Week 48 of MCP-1, sCD14, hs-CRP, IL-6, D-dimer, and fibrinogen are summarized in Table 22.
The sCD14 samples were originally analyzed in 2 separate batches: Batch 1 included samples leading up to the Week 24 primary analysis and Batch 2 included Week 32 and Week 48 (end of study) samples. A repeat analysis of archived samples all analyzed in one batch was conducted for consistency in analysis across time points. To control for the effects of covariates, a linear mixed-model repeated-measures analysis was conducted on the changes from baseline in sCD14 (analysis dated September 2013).

[4] = Week 24, CVC pooled 100 and 200 mg, or EFV
[5] = Week 48, CVC pooled 100 and 200 mg, or EFV

With `CCCCOCCOc1ccc(-c2ccc3c(c2)C=C(C(=O)Nc2ccc([S@@+]([O-])Cc4cncn4CCC)cc2)CCCN3CC(C)C)cc1` [cenicriviroc mesylate, (S)-8-[4-(2-Butoxyethoxy)phenyl]-1-isobutyl-N-(4-{[(1-propyl-1H-imidazol-5-yl)methyl]sulfinyl}phenyl)-1,2,3,4-tetrahydro-1-benzazocine-5-carboxamide monomethanesulfonoate] the Solubility ([1]; aqueous solution at pH 3) was “sparingly soluble”, the Solubility ([1]; aqueous solution from pH 1 to 2) was “freely soluble” and the Solubility ([1]; aqueous solution from pH 4 to 13 and in water) was “practically insoluble”. For the same molecule, the Solubility ([1]; in 99.5% ethanol) was “sparingly soluble”, the Solubility ([1]; in acetonitrile, 1-octanol, tetrahydrofuran) was “slightly soluble” and the Solubility ([1]; in ethyl acetate and diethylether) was “practically insoluble”. For the same molecule, the Solubility ([1]; in glacial acetic acid, methanol, benzyl alcohol, dimethylsulfoxide, N,N-dimethylformamide) was “freely soluble” and the Solubility ([1]; in pyridine and acetic anhydride) was “soluble”.
With `O=C1Nc2ccc(Cl)cc2[C@@](C#CC2CC2)(C(F)(F)F)O1` [EFV, efavirenz, reference compound] the “Subjects with decrease in FIB-4 score by one category” value ([2]; EFV arm, all subjects <1.45 at baseline) was “no subject treated with EFV decreased in FIB-4 score by one category”, the “Subjects in APRI category <0.5” value [2, 4] was 100% and the “Subjects in FIB-4 category <1.45” value [2, 4] was 100%. For the same molecule, the “Subjects with APRI decreased 1 category from baseline” value [2, 4] was 5%, the “Subjects in APRI category <0.5” value [2, 5] was 100% and the “Subjects in FIB-4 category 1.45-3.25” value [2, 5] was 6%. The “Subjects in FIB-4 category <1.45” value [2, 5] was 94%, the “Subjects with APRI decreased 1 category from baseline” value [2, 5] was 6% and the “sCD14 (original values) change from baseline, mean” value ([3]; Week 12) was 90000 pg/mL. For the same molecule, the “sCD14 (original values) change from baseline, median” value ([3]; Week 12) was 180000 pg/mL, the “D-dimer change from baseline, mean” value ([3]; Week 24) was -53 ng/mL and the “D-dimer change from baseline, median” value ([3]; Week 24) was -26 ng/mL. For the same molecule, the “Fibrinogen change from baseline, mean” value ([3]; Week 24) was -28 mg/dL, the “Fibrinogen change from baseline, median” value ([3]; Week 24) was -31 mg/dL and the “IL-6 change from baseline, mean” value ([3]; Week 24) was -8.72 pg/mL. For the same molecule, the “IL-6 change from baseline, median” value ([3]; Week 24) was 0.00 pg/mL, the “MCP-1 change from baseline, mean” value ([3]; Week 24) was -44 pg/mL and the “MCP-1 change from baseline, median” value ([3]; Week 24) was -17 pg/mL. For the same molecule, the “hs-CRP change from baseline, mean” value ([3]; Week 24) was -0.46 mg/dL, the “hs-CRP change from baseline, median” value ([3]; Week 24) was -0.01 mg/dL and the “sCD14 (original values) change from baseline, mean” value ([3]; Week 24) was 230000 pg/mL. The “sCD14 (original values) change from baseline, median” value ([3]; Week 24) was 130000 pg/mL, the “sCD14 (original values) change from baseline, mean” value ([3]; Week 32) was 480000 pg/mL and the “sCD14 (original values) change from baseline, median” value ([3]; Week 32) was 170000 pg/mL. For the same molecule, the “D-dimer change from baseline, mean” value ([3]; Week 48) was -34 ng/mL, the “D-dimer change from baseline, median” value ([3]; Week 48) was 0.0 ng/mL and the “Fibrinogen change from baseline, mean” value ([3]; Week 48) was -30 mg/dL. The “Fibrinogen change from baseline, median” value ([3]; Week 48) was -22 mg/dL, the “IL-6 change from baseline, mean” value ([3]; Week 48) was -13.11 pg/mL and the “IL-6 change from baseline, median” value ([3]; Week 48) was 0.00 pg/mL. The “MCP-1 change from baseline, mean” value ([3]; Week 48) was 4.2 pg/mL, the “MCP-1 change from baseline, median” value ([3]; Week 48) was 33.6 pg/mL and the “hs-CRP change from baseline, mean” value ([3]; Week 48) was -0.71 mg/dL. The “hs-CRP change from baseline, median” value ([3]; Week 48) was -0.03 mg/dL and the “sCD14 (original values) change from baseline, median” value ([3]; Week 48) was 460000 pg/mL.
